Columns and labels:
Assay in all cases: relative viability (nuclei count vs DMSO), 5 days (fraction); higher = more cells survive
[1] = compound: C[C@]12O[C@H](C[C@]1(O)CO)n1c3ccccc3c3c4c(c5c6ccccc6n2c5c31)CNC4=O [Lestaurtinib] + O=C(CCCCCCC(=O)Nc1ccccc1)NO [Vorinostat] (partner 1 µM)
Method in brief: (§1)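 The day after seeding in 1536-well plates, lung cancer cell lines were treated by pin tool with a single drug, or with a fixed anchor-drug dose together with five library-drug doses (not always all listed) in √10 steps. After 5 days, a combined fix-and-stain solution (final 0.05% Triton X-100, 1% formaldehyde, 1 ug/ml Hoechst) was added. Nuclei counted on 4× images gave relative viability as treated counts over vehicle counts, reported as the median of duplicate plates.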

TPCA-1 + Vorinostat = compound: C1=CC(=CC=C1C2=CC(=C(S2)NC(=O)N)C(=O)N)F [TPCA-1] + O=C(CCCCCCC(=O)Nc1ccccc1)NO [Vorinostat] (partner 1 µM)
Method in brief: as §1

[2] = compound: C[C@]12O[C@H](C[C@]1(O)CO)n1c3ccccc3c3c4c(c5c6ccccc6n2c5c31)CNC4=O [Lestaurtinib] + CS(=O)(=O)N1CCN(Cc2cc3nc(-c4cccc5[nH]ncc45)nc(N4CCOCC4)c3s2)CC1 [Pictilisib] (partner 1 µM)
Method in brief: as §1

[3] = compound: C1/C(=C\C2=CC=CS2)/C(=O)/C(=C/C3=CC=CS3)/C1 + CCNC(=O)c1noc(-c2cc(C(C)C)c(O)cc2O)c1-c1ccc(CN2CCOCC2)cc1 [Luminespib] (partner 0.01 µM)
Method in brief: as §1

| Cell Line | relative viability ([1]; first compound 0.005 µM) | relative viability ([1]; first compound 0.01581 µM) | relative viability ([1]; first compound 0.05 µM) | relative viability ([1]; first compound 0.1581 µM) | relative viability ([1]; first compound 0.5 µM) | relative viability (TPCA-1 + Vorinostat; first compound 0.04 µM) | relative viability (TPCA-1 + Vorinostat; first compound 0.1265 µM) | relative viability (TPCA-1 + Vorinostat; first compound 0.4 µM) | relative viability (TPCA-1 + Vorinostat; first compound 1.265 µM) | relative viability (TPCA-1 + Vorinostat; first compound 4 µM) | relative viability ([2]; first compound 0.005 µM) | relative viability ([2]; first compound 0.01581 µM) | relative viability ([2]; first compound 0.05 µM) | relative viability ([2]; first compound 0.1581 µM) | relative viability ([2]; first compound 0.5 µM) | relative viability ([3]; first compound 0.2 µM) | relative viability ([3]; first compound 0.6325 µM) | relative viability ([3]; first compound 2 µM) | relative viability ([3]; first compound 6.325 µM) | relative viability ([3]; first compound 20 µM) |
| --- | --- | --- | --- | --- | --- | --- | --- | --- | --- | --- | --- | --- | --- | --- | --- | --- | --- | --- | --- | --- |
| HCC-78 | 0.442 | 0.407 | 0.386 | 0.311 | 0.243 | 0.445 | 0.422 | 0.42 | 0.469 | 0.28 | 0.19 | 0.225 | 0.203 | 0.136 | 0.169 |  |  |  |  |  |
| HCC-366 | 0.351 | 0.469 | 0.335 | 0.317 | 0.19 |  | 0.288 | 0.359 | 0.285 | 0.0534 | 0.159 | 0.178 | 0.192 | 0.101 | 0.0482 |  |  |  |  |  |
| HCC-827 | 0.817 | 0.961 | 0.869 | 0.924 | 0.244 | 0.987 | 0.764 | 0.89 | 0.841 | 0.671 | 1.13 | 0.8 | 0.896 | 0.833 | 0.388 | 0.85 | 0.608 | 0.454 | 0.592 | 0.636 |
| HOP-62 | 0.632 | 0.767 | 0.494 | 0.426 | 0.295 | 0.771 | 0.52 | 0.688 | 0.381 | 0.176 | 0.742 | 0.693 | 0.642 | 0.604 | 0.427 | 0.992 | 1.03 | 0.909 | 0.861 | 0.918 |
| IA-LM | 1.2 | 1.05 | 1.02 | 1.33 | 0.625 | 1.02 | 0.942 | 0.999 |  | 0.699 | 0.547 | 0.691 | 0.725 | 0.642 | 0.198 |  |  |  |  |  |
| LC-2-ad | 0.713 | 0.768 | 0.41 | 0.296 | 0.203 | 0.742 | 0.69 | 0.705 | 0.716 | 0.155 | 0.369 | 0.333 | 0.204 | 0.167 | 0.113 | 1.2 | 1.14 | 1.12 | 1.04 | 0.961 |
| LCLC-97TM1 |  | 0.744 | 0.389 | 0.187 | 0.155 | 0.844 | 0.488 | 0.905 | 0.365 | 0.0988 | 0.197 | 0.163 | 0.138 | 0.139 | 0.125 | 0.734 | 0.813 | 0.754 | 0.782 | 0.803 |
| LCLC-103H | 0.783 | 0.83 | 0.646 | 0.5 | 0.395 | 0.839 | 0.764 | 0.818 | 0.525 | 0.363 | 0.61 | 0.623 | 0.521 | 0.443 | 0.481 | 1.05 | 0.901 | 1.07 | 0.936 | 0.989 |
| LK-2 | 0.237 | 0.353 | 0.198 | 0.193 | 0.154 | 0.343 | 0.161 | 0.287 | 0.267 | 0.237 | 0.57 | 0.648 | 0.481 | 0.433 | 0.28 | 0.166 | 0.187 | 0.177 | 0.202 | 0.212 |
| LOU-NH91 | 0.824 | 0.962 | 0.646 | 0.422 | 0.303 | 0.937 | 0.925 | 0.908 | 0.851 | 0.674 | 0.539 | 0.482 | 0.517 | 0.444 | 0.314 | 0.332 | 0.358 | 0.413 | 0.328 | 0.338 |
| LU99A | 0.437 | 0.484 | 0.416 | 0.213 | 0.169 | 0.546 | 0.463 | 0.544 | 0.457 | 0.316 | 0.298 | 0.312 | 0.253 | 0.205 | 0.179 | 0.245 | 0.201 | 0.268 | 0.224 | 0.281 |
| LXF-289 | 0.64 | 0.741 | 0.75 | 0.472 | 0.184 | 0.786 | 0.819 | 0.762 | 0.764 | 0.42 | 0.715 | 0.756 | 0.475 | 0.523 | 0.247 | 0.705 | 0.735 | 0.633 | 0.611 | 0.691 |
| NCI-H23 | 0.602 | 0.645 | 0.549 | 0.308 | 0.126 | 0.392 | 0.579 | 0.546 | 0.526 | 0.161 | 0.5 | 0.468 | 0.353 | 0.375 | 0.204 | 0.237 | 0.197 | 0.2 | 0.203 | 0.194 |
| NCI-H522 | 0.964 | 1.13 | 0.895 | 0.785 | 0.474 | 1.03 | 0.819 | 1 | 0.842 | 0.987 |  |  |  |  |  | 1.13 | 0.991 | 1.32 | 1.12 | 1.07 |
| NCI-H1299 |  |  |  |  |  |  |  |  |  |  | 0.558 | 0.502 | 0.222 | 0.305 | 0.133 |  |  |  |  |  |
| NCI-H1563 |  |  |  |  |  |  |  |  |  |  | 0.635 | 0.709 | 0.618 | 0.638 | 0.536 | 0.567 | 0.511 | 0.552 | 0.534 | 0.492 |
| NCI-H1623 |  |  |  |  |  |  |  |  |  |  |  |  |  |  |  | 0.672 | 0.601 | 0.528 | 0.372 | 0.511 |
| NCI-H1648 |  | 0.543 |  | 0.807 | 0.29 | 0.4 | 0.486 | 0.528 | 0.704 | 0.631 |  |  |  |  |  |  |  |  |  |  |
| NCI-H1703 |  |  |  |  |  |  |  |  |  |  | 0.254 | 0.217 | 0.201 | 0.173 | 0.132 |  |  |  |  |  |
| NCI-H1792 |  |  |  |  |  |  |  |  |  |  | 0.316 | 0.302 | 0.243 | 0.141 | 0.129 | 0.509 | 0.285 | 0.468 | 0.583 | 0.388 |
| NCI-H2342 | 0.776 | 0.767 | 0.752 | 0.915 | 0.743 | 0.77 | 0.699 | 0.681 | 0.683 | 0.663 |  |  |  |  |  | 0.761 | 0.654 | 0.767 | 0.615 | 0.8 |
| SW 900 | 0.376 | 0.69 | 0.59 | 0.632 | 0.65 |  |  | 0.515 | 0.422 | 0.45 |  |  |  |  |  | 0.16 | 0.173 | 0.181 | 0.175 | 0.156 |

From the supplement of paper PMC10307832
